In PMC11178805, “Ligand-based design of [^18F]OXD-2314 for PET imaging in non-Alzheimer’s disease tauopathies” (Nature Communications, 2024):
Where two headings read alike, the source gives them in different places.

Experiments:
[1] = molecular target: T1, 3R/4R-tau aggregates in AD tissue (Homo sapiens, UniProt P10636); test: Competition binding vs [^3H]OXD-2314 in AD tissue
Description: (§1) Fresh frozen, autopsy-confirmed human PD anterior cingulate cortex brain tissue blocks (1 cm^3) were obtained from Dr. Thomas Beach at Banner/Sun Health AZ with funding from the Michael J. Fox Foundation and contained frequent α-synuclein aggregates and no other detectable aggregated amyloid species. The frozen tissue blocks were prepared for the binding assays as previously described[47],[48], except that equal quantities of the homogenates of three AD brains (AD1-AD3, Table S1) were pooled, as were homogenates from three PSP brains (PSP1-PSP3), three CBD brains (CBD1-CBD3), three Pick’s brains (PiD1-PiD3), and 4 PD brains (PD1-PD4) in order to help minimize the inter-subject variability within the different neuropathological groups. Individual subcortical brain tissues from a PSP subject (PSP4) and a CBD subject (CBD4), as well as with the middle frontal cortex of a control subject, were prepared for the binding assays as previously described[47],[48].
(§2) The equilibrium inhibition constant (Ki) values of the unlabeled compounds were determined versus tritium-labeled radioligands using published methods.
Target sequence in this assay (P10636 623-758 limits assumed): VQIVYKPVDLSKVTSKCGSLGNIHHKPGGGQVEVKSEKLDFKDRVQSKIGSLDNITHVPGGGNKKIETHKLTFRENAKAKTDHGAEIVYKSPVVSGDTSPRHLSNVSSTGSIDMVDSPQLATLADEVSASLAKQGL

[2] = molecular target: T2, 4R-tau aggregates in PSP tissue (Homo sapiens, UniProt P10636); test: Competition binding vs [^3H]OXD-2314 in PSP tissue
T2 construct: tissue Neurodegenerative Disease Brain Bank at UCSF
T2 sequence (P10636 1-441 isoform P10636-8): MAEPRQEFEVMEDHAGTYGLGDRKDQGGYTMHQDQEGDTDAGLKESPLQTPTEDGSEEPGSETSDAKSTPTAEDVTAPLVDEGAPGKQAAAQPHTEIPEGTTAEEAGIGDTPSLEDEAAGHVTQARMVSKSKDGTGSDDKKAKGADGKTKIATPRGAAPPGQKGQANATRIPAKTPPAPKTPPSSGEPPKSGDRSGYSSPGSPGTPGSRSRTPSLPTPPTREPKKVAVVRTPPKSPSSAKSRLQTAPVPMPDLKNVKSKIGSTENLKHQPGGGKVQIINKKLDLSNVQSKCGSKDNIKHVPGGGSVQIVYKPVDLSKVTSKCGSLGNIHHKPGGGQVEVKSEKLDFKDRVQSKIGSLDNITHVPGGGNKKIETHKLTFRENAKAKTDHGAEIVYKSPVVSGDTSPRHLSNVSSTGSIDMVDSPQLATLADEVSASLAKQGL
Description: as §1, §2

[3] = molecular target: T3, 4R-tau aggregates in CBD tissue (Homo sapiens, UniProt P10636); test: Competition binding vs [^3H]OXD-2314 in CBD tissue
T3 construct: tissue Neurodegenerative Disease Brain Bank at UCSF; host or cells: human CBD brain, middle frontal gyrus (pool of three) or putamen (one subject)
T3 sequence (P10636 1-441 isoform P10636-8): as above
Description: as §1, §2

[4] = molecular target: T1, 3R/4R-tau aggregates in AD tissue; test: Competition binding vs [^3H]OXD-2115 in AD tissue homogenates; conditions: vs [^3H]OXD-2115, AD tissue homogenates, n = 1
Description: as §1, §2
Target sequence in this assay (P10636 623-695 limits assumed): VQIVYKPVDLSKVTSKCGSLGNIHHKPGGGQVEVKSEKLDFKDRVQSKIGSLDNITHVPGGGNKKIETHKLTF

[5] = molecular target: T2, 4R-tau aggregates in PSP tissue; test: Competition binding vs [^3H]OXD-2115 in PSP tissue homogenates; conditions: vs [^3H]OXD-2115, PSP tissue homogenates, n = 1
Description: as §1, §2

[6] = Baseline PET-CT imaging of [18F]OXD-2188 and [18F]OXD-2189 in rats; type: in vivo, rat; conditions: normal rats, n = 2
Description: In vitro characterization, radiosynthesis and rat PET imaging of [ 18F ]O X D -2188 and […]
In vitro characterization. Ki values for OXD-21188 and OXD-2189 vs. [3H]OXD- 2115 in PSP tissue was 29.8 nM and 13.7nM respectively.
Radiochemistry. [18F]OXD- 2188 and [18F]OXD- 2189 were radiolabeled using the same […]
radiochemical purity above 95%, molar activity of 60.1 and 58.4 GBq/μmol, respectively, and radiochemical yield of 9% (not decay- co rrected).
PET imaging. Three adul t rats (two females and o ne male) w ere used in b aseline PET imaging of [18F]OXD- 2188 and [18F]OXD- 2189 (16- 23 MBq injected, with the m ale rat being scanned twice on two consecutive d ays). […]
for both [18F]OXD- 2188 (n=2) and [18F]OXD- 2189 (n=2) with rapid clearance of radioactivity from the brain (Figure S1).
Figure S1. Structures of OXD-2188 and OXD-2189, time-activity curves and representative PET summation images […]

[7] = molecular target: T4, 3R-tau aggregates in PiD tissue (Homo sapiens, UniProt P10636); test: Competition binding vs [^3H]OXD-2314 in PiD tissue
T4 construct: tissue Neurodegenerative Disease Brain Bank at UCSF; host or cells: human PiD brain, middle frontal gyrus, pooled homogenate of three brains
T4 sequence (P10636 1-410 isoform P10636-5): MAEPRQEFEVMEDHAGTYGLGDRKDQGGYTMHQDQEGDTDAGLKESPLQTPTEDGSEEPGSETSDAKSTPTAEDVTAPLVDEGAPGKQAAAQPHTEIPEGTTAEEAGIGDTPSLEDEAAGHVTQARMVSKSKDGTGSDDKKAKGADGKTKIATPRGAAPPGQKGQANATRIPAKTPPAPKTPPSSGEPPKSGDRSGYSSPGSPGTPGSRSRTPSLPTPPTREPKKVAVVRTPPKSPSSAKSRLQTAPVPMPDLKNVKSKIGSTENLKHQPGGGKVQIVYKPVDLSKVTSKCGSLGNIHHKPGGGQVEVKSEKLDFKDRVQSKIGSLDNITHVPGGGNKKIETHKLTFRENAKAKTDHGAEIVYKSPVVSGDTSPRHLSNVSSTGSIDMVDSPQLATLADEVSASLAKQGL
Description: as §1, §2

[8] = Mouse pharmacology (DMPK): plasma and brain concentrations, brain-to-plasma ratios after i.v. administration; type: in vivo, mice; conditions: mouse, brain, iv, mice, i.v., AUC brain:plasma
Description: Ex vivo evaluation of the BBB permeability of OXD-2314 was performed by measuring the brain-to-plasma ratios in mice. Compound concentrations in plasma (0.03 h, 0.17 h, 0.5 h, 1 h, and 2 h; n = 3 per timepoint) were compared with concentrations in brain (0.03 h, 0.17 h, 1 h, and 2 h; n = 3 per timepoint) for both OXD-2115 and OXD-2314. The total brain-to-plasma concentration ratios were 1.7 for OXD-2314 and 0.1 for OXD-2115. The free concentration ratio for brain-to-plasma was 0.6 for OXD-2314 and 0.002 for OXD-2115 (Figs. S3–S8 and Tables S2, S3).

Compound: NCCNC(=O)c1ncsc1-c1cccc(F)c1 [Ro41-1049]
- Ki ([1]; vs [^3H]OXD-2314, AD tissue): > 10000 nM
- Ki ([2]; vs [^3H]OXD-2314, PSP tissue): > 10000 nM
- Ki ([3]; vs [^3H]OXD-2314, CBD tissue): > 10000 nM

Compound: Oc1ccc2[nH]c(-c3ccc(N4CCC(F)CC4)nc3F)cc2c1 [OXD-2317]
- Ki [4]: 5.4 nM
- Ki [5]: 5.8 nM

Compound: C#CCN(C)C(C)Cc1ccccc1 (stereo not drawn) [Deprenyl]
- Ki ([1]; vs [^3H]OXD-2314, AD tissue): 2900 nM
- Ki ([2]; vs [^3H]OXD-2314, PSP tissue): 3000 nM
- Ki ([3]; vs [^3H]OXD-2314, CBD tissue): 5000 nM

Compound: Oc1ccc2[nH]c(-c3ccc(N4CCC[C@@H](O)C4)nc3F)cc2c1 [OXD-2188]
- Ki [5]: 29.8 nM

Compound: Oc1ccc2[nH]c(-c3ccc(N4CCC(O)CC4)nc3F)cc2c1 [OXD-2310]
- Ki [4]: 21 nM
- Ki [5]: 6.6 nM

Compound: Oc1ccc2[nH]c(-c3ccc(N4CCC[C@H](O)C4)nc3[18F])cc2c1 [[18F]OXD-2189]
- initial brain uptake [6]: ~ 1.0 SUV

Compound: Oc1ccc2[nH]c(-c3ccc(N4CCCC(F)C4)nc3F)cc2c1 (stereo not drawn) [OXD-2312]
- Ki [4]: 12 nM
- Ki [5]: 5.1 nM

Compound: OCC1CCN(c2ccc(-c3cc4cc(O)ccc4[nH]3)c(F)n2)CC1 [OXD-2115]
- Ki [4]: 20 nM
- Ki [5]: 27 nM
- Ki [1]: 14 nM
- Ki [2]: 27 nM
- Ki [3]: 30 nM
- Ki [7]: 23 nM
- Kp,uu (unbound brain-to-plasma ratio) ([8]; FREE, read-out: free concentration ratio brain-to-plasma): 0.002
- Kp ([8]; TOTAL, read-out: total brain-to-plasma concentration ratio): 0.1

Compound: Nc1c(F)ccc2cnc(-n3ccc4ccncc43)cc12 [MK-6240]
- Ki [1]: 1900 nM
- Ki [2]: 5600 nM
- Ki [3]: 1700 nM
- Ki [7]: 1000 nM

Compound: CO[C@H]1CCCN(c2ncc(-c3cc4cc(O)ccc4[nH]3)c(F)n2)C1 [OXD-2331]
- Ki [4]: 7.4 nM
- Ki [5]: 6.3 nM

Compound: Fc1ccc(-c2ccc3c(c2)[nH]c2ccncc23)cn1 [Tauvid]
- Ki [1]: > 10000 nM
- Ki [2]: > 10000 nM
- Ki [3]: > 10000 nM
- Ki [7]: 4400 nM

Compound: Oc1ccc2[nH]c(-c3ccc(N4CCC[C@H](O)C4)nc3F)cc2c1 [OXD-2189]
- Ki [5]: 13.7 nM

Compound: Oc1ccc2[nH]c(-c3ccc(N4CCC[C@@H](O)C4)nc3[18F])cc2c1 [[18F]OXD-2188]
- initial brain uptake [6]: ~ 1.0 SUV

Compound: Oc1ccc2[nH]c(-c3ccc(F)nc3N3CCCC(F)C3)cc2c1 (stereo not drawn) [OXD-2313]
- Ki [4]: 11 nM
- Ki [5]: 4.8 nM
